Test results: US20040023884A1, “Biologically active peptides from functional domains of bactericidal/permeability-increasing protein and uses thereof” (priority 1993, published 2004)
Entries after “also recorded” stand apart in the source; their conditions may differ. Ends that are not written are not given here.

Key:
[1] = test system: zymosan-stimulated NO production by RAW 264.7 cells; assay: Zymosan-stimulated NO production by RAW 264.7 cells; assay type: cell-based, mouse
Procedure: An additional LPS neutralization screening assay for BPI functional domain peptides was developed using an assay for NO production in mouse cells treated with LPS (see Lorsbach et al., 1993, J. Biol. Chem. 268: 1908-1913). In this assay, mouse RAW 264.7 cells (ATCC Accession No. TIB71) were treated with bacterial LPS. The cells were incubated in 96-well plates and stimulated for 2 hours with E. coli 0113 LPS or zymosan, in the presence or absence of _-interferon, rLBP, fetal bovine serum (FBS) or normal human serum (NHS), or rBPI21Δcys. After this incubation, the cells were washed with fresh media and incubated overnight in media containing 10% FCS. The NO released from the cells accumulated in the media and spontaneously converted to nitrite. This nitrite was assayed in situ by the Griess reaction, as follows. The nitrite was reacted with the primary amine of an added sulfanilamide and formed a diazonium salt. This salt was then reacted with added naphthylethylenediamine to form a red azo-dyc. The Griess reaction was performed at room temperature in about 10 minutes. The amount of produced NO was estimated from a standard curve of Griess reaction products determined spectrophotometrically as Absorbance at a wavelength of 550 nm.

[2] = In vitro heparin-mediated lengthening of APTT / clotting time of heparinized plasma; assay type: biochemical, human; details: for effect on the clotting time of heparinized blood (in words): FIG. 12g; for effect on heparin-mediated lengthening of APTT (in words): citrated human plasma, 25 μg/mL heparin, 0.0 to 56 μg/mL
In short: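 Citrated human plasma preincubated 1 min at 37° C with diluent (0.15 M NaCl, 0.1 M Tris-HCl, pH 7.4), with or without 25 μg/mL heparin. Compound added at 0.0 to 56 μg/mL, immediately followed by thrombin reagent. Clotting (thrombin) time measured by fibrometer.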

Candida albicans = assay type: cell-based; details: broth assay, FIGS. 11p and 11q
Procedure: In additional experiments, broth antibacterial assays were conducted to further determine the bactericidal activity of certain of the BPI peptides. Specifically, either E. coli J5 (rough) or E. coli 0111:B4 (smooth) bacteria were selected from single colonies on agar plates and used to inoculate 5 mL of Mueller Hinton broth and incubated overnight at 37° C. with shaking. The overnight culture was diluted (˜1:50) into 5 mL fresh broth and incubated at 37° C. to log phase (˜3 hours). Bacteria were pelleted for 5 minutes at 3000 rpm (1500×g). Bacterial pellets were resuspended in 5 mL PBS and diluted to 2×10^6 cells/mL in the Mueller Hinton broth (wherein 1 OD570 unit equals 1.25×10^9 CFU/mL). The BPI functional domain peptides to be tested were diluted to 200 μg/mL in broth and serially diluted 2-fold in 96 well culture plates (100 μL volume). All items were at 2-fold final concentration and experiments were conducted in triplicate. Bacteria were added at 100 μL/well and the plates were incubated on a shaker at 37° C. for a 20 hour period. The plates were then read on an ELISA plate multiple reader at 590 nm. One of the triplicate wells from each peptide concentration was selected for colony forming unit (CFU) determination. A 30 μL aliquot was added to 270 μL of PBS and further ten-fold serial dilutions were performed. Then a 50 μL aliquot was plated on tryptic soy agar and incubated overnight. Colonies were counted and final bacterial concentrations determined. The results of these assays are depicted in FIGS. 9e (for E. coli J5) and 9f (for E. coli 0111:B4).
In light of the results of the experiments disclosed in Example 15, the bactericidal activity of domain II-domain III combination peptides were compared with the bactericidal activity of each of the component BPI domain II and domain III peptides, against a number of different bacteria and other microorganisms. The following BPI functional domain peptides as described above were used in radial diffusion bactericidal assays (Example 2) and broth bactericidal assays (Example 13) essentially as described in Example 15 above. These Figures show results of bactericidal assays using the following bacterial strains: […]

Klebsiella pneumoniae = assay: Radial diffusion bactericidal assay, Klebsiella pneumoniae; assay type: cell-based
[3] = FIG. 11c, up to about 2000 pmol

Substance | inhibition of zymosan-stimulated NO production (in words) [1] | effect on the clotting time of heparinized blood (in words) [2] | fungicidal activity (in words) (Candida albicans) | bactericidal activity (in words) (Klebsiella pneumoniae; [3]) | bactericidal activity (in words) (Klebsiella pneumoniae; FIG. 10d) | effect on heparin-mediated lengthening of APTT (in words) [2]
IKISGKWKAQKRFLK [BPI.2] | not inhibited | less of a decrease in clotting times | much lower activity levels |  |  | 
KSKVGWLIQLFHKK-NH2 (C-terminus assumed) [BPI.13] |  |  | found to have fungicidal activity | showed bactericidal activity | low levels of activity | 
KSKVGWLIQLFHKKKSKVGWLIQLFHKK-NH2 (C-terminus assumed) [BPI.29] |  | greatest effect | much lower activity levels |  | moderate levels of activity | inhibit the heparin-mediated lengthening of APTT
KWKAAARFLKKWKAAARFLK [BPI.48] |  |  | much lower activity levels |  |  | 
KWKAQKRFLKKSKVGWLIQLFHKK-NH2 (C-terminus assumed) [BPI.30] | inhibited by BPI.30 at high (—100 μg/mL) concentrations | greatest effect | much lower activity levels | showed bactericidal activity | highest amount of bactericidal activity | inhibit the heparin-mediated lengthening of APTT
KWKAQKRFLKKWKAQKRFLK-NH2 (C-terminus assumed) [BPI.7] | small amount of inhibition by BPI.7 at high concentrations | greatest effect; also recorded: less of a decrease in clotting times |  |  | low levels of activity | 
NVGLKFSISNANIKISGKWKAQKRFLK [BPI.3] | not inhibited | smaller effect |  |  |  | 
